Data: paper PMC4300089, “Structure-Guided Design of Selective Epac1 and Epac2 Agonists” (PLoS Biology, 2015)
Positions count from the first letter of the chain named.

How the values were obtained:
[1] = target: T1, Epac2^Δ280 (Mus musculus, UniProt Q9EQZ6); test: Epac activation assay (Rap1B•mGDP fluorescence nucleotide exchange), Epac2^Δ280; type: biochemical; conditions: for AC50 / Rel. kmax: Epac2^Δ280; for Rel. kmax: maximal activity relative to cAMP
T1 construct: made in house
T1 sequence (Q9EQZ6 281-993 isoform Q9EQZ6-3): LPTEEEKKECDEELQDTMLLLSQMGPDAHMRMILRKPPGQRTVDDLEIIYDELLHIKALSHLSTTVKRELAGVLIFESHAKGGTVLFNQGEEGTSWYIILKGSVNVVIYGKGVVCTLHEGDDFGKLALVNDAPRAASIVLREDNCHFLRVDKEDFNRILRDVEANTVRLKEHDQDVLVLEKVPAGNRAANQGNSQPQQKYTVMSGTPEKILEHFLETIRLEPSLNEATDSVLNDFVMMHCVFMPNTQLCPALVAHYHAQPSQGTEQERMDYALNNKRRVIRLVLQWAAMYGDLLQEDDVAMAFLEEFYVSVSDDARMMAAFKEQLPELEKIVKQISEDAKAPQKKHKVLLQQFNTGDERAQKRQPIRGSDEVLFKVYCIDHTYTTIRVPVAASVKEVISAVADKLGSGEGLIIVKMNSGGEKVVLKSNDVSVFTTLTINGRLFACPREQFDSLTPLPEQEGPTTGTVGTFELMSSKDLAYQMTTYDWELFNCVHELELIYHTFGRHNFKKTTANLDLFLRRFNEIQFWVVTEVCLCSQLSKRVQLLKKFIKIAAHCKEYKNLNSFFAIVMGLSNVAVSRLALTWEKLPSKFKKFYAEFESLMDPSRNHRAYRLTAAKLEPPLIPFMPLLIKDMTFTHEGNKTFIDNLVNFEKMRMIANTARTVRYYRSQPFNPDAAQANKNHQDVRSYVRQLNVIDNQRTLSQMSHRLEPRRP
Protocol: (§1) Murine Epac2 was used as all previous structural studies were performed with it.
(§2) The activity of Epac was determined by a fluorescence assay. […] The fluorescence intensity of Rap1B•mGDP is approximately twice that of free mGDP, and thus, nucleotide exchange can be observed as a decay in fluorescence upon the addition of excess unlabeled GDP.

[2] = target: T2, Epac2^Δ280,K450A (Mus musculus, UniProt Q9EQZ6, K468A); test: Epac activation assay, Epac2 K450A mutant; type: biochemical
T2 construct: made in house
T2 sequence (Q9EQZ6 281-993 isoform Q9EQZ6-3 K450A): T1 sequence (Q9EQZ6 281-993 isoform Q9EQZ6-3) with K170A
Protocol: as §1, §2

## Cc1ccc(CSc2nc3c(N)ncnc3n2[C@@H]2O[C@@H]3CO[P@](O)(=S)O[C@H]3[C@H]2O)cc1 [S-230, Sp-8-pMeBnT-cAMPS]
[1]; 0.01 μM compound
  kobs: 3.1e-05 s⁻¹
[1]; 0.03 μM compound
  kobs: 5.1e-05 s⁻¹
[1]; 0.04 μM compound
  kobs: 5.8e-05 s⁻¹
[1]; 0.05 μM compound
  kobs: 6.5e-05 s⁻¹
[1]; 0.06 μM compound
  kobs: 6.9e-05 s⁻¹
[1]; 0.07 μM compound
  kobs: 7.9e-05 s⁻¹
[1]; 0.08 μM compound
  kobs: 8.9e-05 s⁻¹
[1]; 0.1 μM compound
  kobs: 0.000108 s⁻¹
[1]; 0.2 μM compound
  kobs: 0.000191 s⁻¹
[1]; 0.3 μM compound
  kobs: 0.000259 s⁻¹
[1]; 0.4 μM compound
  kobs: 0.000337 s⁻¹
[1]; 0.5 μM compound
  kobs: 0.000361 s⁻¹
[1]; 0.6 μM compound
  kobs: 0.000448 s⁻¹
[1]; 0.7 μM compound
  kobs: 0.000484 s⁻¹
[1]; 0.8 μM compound
  kobs: 0.000517 s⁻¹
[1]; 1 μM compound
  kobs: 0.000599 s⁻¹
[1]; 2 μM compound
  kobs: 0.000852 s⁻¹
[1]; 3 μM compound
  kobs: 0.00104 s⁻¹
[1]; 4 μM compound
  kobs: 0.00107 s⁻¹
[1]; 5 μM compound
  kobs: 0.00111 s⁻¹
[1]; 6 μM compound
  kobs: 0.00117 s⁻¹
[1]; 7 μM compound
  kobs: 0.00124 s⁻¹
[1]; 8 μM compound
  kobs: 0.00123 s⁻¹
[1]; 10 μM compound
  kobs: 0.00132 s⁻¹
[1]; 20 μM compound
  kobs: 0.00148 s⁻¹
[1]; 30 μM compound
  kobs: 0.00149 s⁻¹
[1]; 40 μM compound
  kobs: 0.00149 s⁻¹
[1]; 50 μM compound
  kobs: 0.00145 s⁻¹
[1]; 60 μM compound
  kobs: 0.00145 s⁻¹
[1]; 70 μM compound
  kobs: 0.00142 s⁻¹
[1]; 80 μM compound
  kobs: 0.00143 s⁻¹
[1]; 100 μM compound
  kobs: 0.00145 s⁻¹
[1]
  AC50: 70 nM
  Rel. kmax: 6.4

## Nc1ncnc2c1ncn2C1OC2COP(O)(=S)OC2C1O (stereo not shown) [S-000, Sp-cAMPS]
[2]; 0.01 μM compound
  kobs: 2.9e-05 s⁻¹
[2]; 0.03 μM compound
  kobs: 3.7e-05 s⁻¹
[2]; 0.05 μM compound
  kobs: 4.5e-05 s⁻¹
[2]; 0.08 μM compound
  kobs: 5.2e-05 s⁻¹
[2]; 0.2 μM compound
  kobs: 9.9e-05 s⁻¹
[2]; 0.3 μM compound
  kobs: 0.000114 s⁻¹
[2]; 0.5 μM compound
  kobs: 0.000137 s⁻¹
[2]; 0.6 μM compound
  kobs: 0.000137 s⁻¹
[2]; 0.7 μM compound
  kobs: 0.000253 s⁻¹
[2]; 0.8 μM compound
  kobs: 0.000277 s⁻¹
[2]; 1 μM compound
  kobs: 0.000309 s⁻¹
[2]; 2 μM compound
  kobs: 0.000364 s⁻¹
[2]; 3 μM compound
  kobs: 0.00043 s⁻¹
[2]; 4 μM compound
  kobs: 0.000497 s⁻¹
[2]; 5 μM compound
  kobs: 0.000529 s⁻¹
[2]; 6 μM compound
  kobs: 0.000661 s⁻¹
[2]; 7 μM compound
  kobs: 0.000655 s⁻¹
[2]; 8 μM compound
  kobs: 0.000698 s⁻¹
[2]; 10 μM compound
  kobs: 0.000703 s⁻¹
[2]; 20 μM compound
  kobs: 0.000752 s⁻¹
[2]; 30 μM compound
  kobs: 0.000754 s⁻¹
[2]; 40 μM compound
  kobs: 0.000809 s⁻¹
[2]; 50 μM compound
  kobs: 0.000778 s⁻¹
[2]; 60 μM compound
  kobs: 0.000824 s⁻¹
[2]; 70 μM compound
  kobs: 0.000828 s⁻¹
[2]; 80 μM compound
  kobs: 0.000833 s⁻¹
[2]; 100 μM compound
  kobs: 0.000821 s⁻¹
[1]; 0.01 μM compound
  kobs: 2.4e-05 s⁻¹
[1]; 0.05 μM compound
  kobs: 3.7e-05 s⁻¹
[1]; 0.08 μM compound
  kobs: 4.4e-05 s⁻¹
[1]; 0.1 μM compound
  kobs: 4.8e-05 s⁻¹
[1]; 0.2 μM compound
  kobs: 7.3e-05 s⁻¹
[1]; 0.3 μM compound
  kobs: 9.9e-05 s⁻¹
[1]; 0.4 μM compound
  kobs: 0.000122 s⁻¹
[1]; 0.5 μM compound
  kobs: 0.000139 s⁻¹
[1]; 0.6 μM compound
  kobs: 0.000141 s⁻¹
[1]; 0.7 μM compound
  kobs: 0.000159 s⁻¹
[1]; 0.8 μM compound
  kobs: 0.000171 s⁻¹
[1]; 1 μM compound
  kobs: 0.000175 s⁻¹
[1]; 2 μM compound
  kobs: 0.000357 s⁻¹
[1]; 3 μM compound
  kobs: 0.000431 s⁻¹
[1]; 4 μM compound
  kobs: 0.000482 s⁻¹
[1]; 5 μM compound
  kobs: 0.000505 s⁻¹
[1]; 6 μM compound
  kobs: 0.000495 s⁻¹
[1]; 7 μM compound
  kobs: 0.000524 s⁻¹
[1]; 8 μM compound
  kobs: 0.000525 s⁻¹
[1]; 10 μM compound
  kobs: 0.000559 s⁻¹
[1]; 20 μM compound
  kobs: 0.0007 s⁻¹
[1]; 30 μM compound
  kobs: 0.000741 s⁻¹
[1]; 40 μM compound
  kobs: 0.000742 s⁻¹
[1]; 50 μM compound
  kobs: 0.000724 s⁻¹
[1]; 60 μM compound
  kobs: 0.000763 s⁻¹
[1]; 70 μM compound
  kobs: 0.000779 s⁻¹
[1]; 80 μM compound
  kobs: 0.000793 s⁻¹
[1]; 100 μM compound
  kobs: 0.000771 s⁻¹
[1]
  AC50: 2800 nM
  Rel. kmax: 2.5

## Nc1ncnc2c1ncn2[C@@H]1O[C@@H]2COP(=O)(O)O[C@H]2[C@H]1O [cAMP, reference compound]
[2]; 0.01 μM compound
  kobs: 2.72e-05 s⁻¹
[2]; 0.05 μM compound
  kobs: 4e-05 s⁻¹
[2]; 0.08 μM compound
  kobs: 5.02e-05 s⁻¹
[2]; 0.1 μM compound
  kobs: 5.2e-05 s⁻¹
[2]; 0.2 μM compound
  kobs: 8.53e-05 s⁻¹
[2]; 0.3 μM compound
  kobs: 0.000105 s⁻¹
[2]; 0.4 μM compound
  kobs: 0.000119 s⁻¹
[2]; 0.5 μM compound
  kobs: 0.000137 s⁻¹
[2]; 0.6 μM compound
  kobs: 0.000149 s⁻¹
[2]; 0.7 μM compound
  kobs: 0.000155 s⁻¹
[2]; 0.8 μM compound
  kobs: 0.000159 s⁻¹
[2]; 1 μM compound
  kobs: 0.000183 s⁻¹
[2]; 2 μM compound
  kobs: 0.000228 s⁻¹
[2]; 3 μM compound
  kobs: 0.000276 s⁻¹
[2]; 4 μM compound
  kobs: 0.000288 s⁻¹
[2]; 5 μM compound
  kobs: 0.000293 s⁻¹
[2]; 6 μM compound
  kobs: 0.0003 s⁻¹
[2]; 7 μM compound
  kobs: 0.000286 s⁻¹
[2]; 8 μM compound
  kobs: 0.0003 s⁻¹
[2]; 10 μM compound
  kobs: 0.000289 s⁻¹
[2]; 20 μM compound
  kobs: 0.000309 s⁻¹
[2]; 30 μM compound
  kobs: 0.000319 s⁻¹
[2]; 40 μM compound
  kobs: 0.000313 s⁻¹
[2]; 50 μM compound
  kobs: 0.000318 s⁻¹
[2]; 60 μM compound
  kobs: 0.00031 s⁻¹
[2]; 70 μM compound
  kobs: 0.000323 s⁻¹
[2]; 80 μM compound
  kobs: 0.000319 s⁻¹
[2]; 100 μM compound
  kobs: 0.000327 s⁻¹
[1]; 0.4 μM compound
  kobs: 9.9e-05 s⁻¹
[1]; 0.5 μM compound
  kobs: 0.000111 s⁻¹
[1]; 0.6 μM compound
  kobs: 0.000113 s⁻¹
[1]; 0.7 μM compound
  kobs: 0.000125 s⁻¹
[1]; 0.8 μM compound
  kobs: 0.000132 s⁻¹
[1]; 1 μM compound
  kobs: 0.000141 s⁻¹
[1]; 2 μM compound
  kobs: 0.000207 s⁻¹
[1]; 3 μM compound
  kobs: 0.000246 s⁻¹
[1]; 4 μM compound
  kobs: 0.000263 s⁻¹
[1]; 5 μM compound
  kobs: 0.000273 s⁻¹
[1]; 6 μM compound
  kobs: 0.000293 s⁻¹
[1]; 7 μM compound
  kobs: 0.000298 s⁻¹
[1]; 8 μM compound
  kobs: 0.000303 s⁻¹
[1]; 10 μM compound
  kobs: 0.00031 s⁻¹
[1]; 20 μM compound
  kobs: 0.000328 s⁻¹
[1]; 30 μM compound
  kobs: 0.000331 s⁻¹
[1]; Epac2, assuming the most efficient activators shift the equilibrium fully
  share of cAMP bound protein still in an inactive conformation: ~85%
